Molecules are shown by their SMILES.

Usually IC50 stands for the concentration that inhibits the measured activity by half. A lower IC50 goes with greater potency. One may read the EC50 as the concentration at which the effect is half-maximal.

Series [1] addresses T1, HEP4 (Homo sapiens, UniProt P35408).
T1 construct: expressed in transfected cells; host or cells: HEK-293
In words: Radioligand binding, EP4 receptor. To be noted: [3H]PGE2 5 nM, HEK-293 membranes. The procedure: (§1) HEK-293 cells stably expressing the human or feline FP receptor, or EP1, EP2, or EP4 receptors were washed with TME buffer, scraped from the bottom of the flasks, and homogenized for 30 sec using a Brinkman PT 10/35 polytron. TME buffer was added to achieve a final 40 ml volume in the centrifuge tubes (the composition of TME is 100 mM TRIS base, 20 mM MgCl2, […]; 10N HCl is added to achieve a pH of 7.4).
(§2) The cell homogenate was centrifuged at 19000 r.p.m. for 20 min at 4° C. using a Beckman Ti-60 rotor. The resultant pellet was resuspended in TME buffer to give a final 1 mg/ml protein concentration, as determined by Biorad assay. Radioligand binding competition assays vs. [^3H-]17-phenyl PGF2α (5 nM) were performed in a 100 μl volume for 60 min. Binding reactions were started by adding plasma membrane fraction. The reaction was terminated by the addition of 4 ml ice-cold TRIS-HCl buffer and rapid filtration through glass fiber GF/B filters using a Brandel cell harvester. The filters were washed 3 times with ice-cold buffer and oven dried for one hour. Non-specific binding was determined with 10 uM unlabeled 17-phenyl PGF2α.
(§3) [^3H-] PGE2 (5 nM; specific activity 180 Ci mmol) was used as the radioligand for EP receptors. Binding studies employing EP1, EP2, EP3, EP4 were performed in duplicate in at least three separate experiments. A 200 μl assay volume was used. Incubations were for 60 min at 25° C. and were terminated by the addition of 4 ml of ice-cold 50 mM TRIS-HCl, followed by rapid filtration through Whatman GF/B filters and three additional 4 ml washes in a cell harvester (Brandel). Non-specific binding determined with 10^−5M of unlabeled PGE2.

Series [2] deals with T2, hEP4/Gqs5 (Homo sapiens, UniProt P35408).
T2 construct: expressed in transfected cells; host or cells: HEK-293 (EBNA)
T2 sequence (P35408 whole entry): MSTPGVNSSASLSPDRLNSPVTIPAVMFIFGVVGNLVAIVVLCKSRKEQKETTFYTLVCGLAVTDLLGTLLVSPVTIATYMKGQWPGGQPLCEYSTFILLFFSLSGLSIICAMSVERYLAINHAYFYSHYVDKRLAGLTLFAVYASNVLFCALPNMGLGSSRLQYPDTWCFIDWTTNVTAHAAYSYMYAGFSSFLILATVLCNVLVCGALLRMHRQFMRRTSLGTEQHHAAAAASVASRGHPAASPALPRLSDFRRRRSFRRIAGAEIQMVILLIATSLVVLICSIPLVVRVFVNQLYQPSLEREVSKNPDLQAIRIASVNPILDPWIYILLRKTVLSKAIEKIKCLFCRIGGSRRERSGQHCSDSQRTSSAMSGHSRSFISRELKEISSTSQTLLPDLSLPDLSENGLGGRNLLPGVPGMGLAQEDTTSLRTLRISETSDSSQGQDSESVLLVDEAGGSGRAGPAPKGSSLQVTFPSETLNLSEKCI
Kind of series: FLIPR calcium signal, hEP4/Gqs5. In kind it is cell-based. To be noted: HEK-293 (EBNA) cells, read-out: FUNCTIONAL EC50 HEP4. How it is done: (§4) HEK-293 (EBNA) cells, stably expressing one type or subtype of recombinant human prostaglandin receptors (prostaglandin receptors expressed: hDP/Gqs5; hEP1; hEP2/Gqs5; hEP3A/Gqi5; hEP4/Gqs5; hFP; hIP; hTP), were cultured in 100 mm culture dishes in high-glucose DMEM medium containing 10% fetal bovine serum, 2 mM 1-glutamine, 250 μg/ml geneticin (G418) and 200 μg/ml hygromycin B as selection markers, and 100 units/ml penicillin G, 100 μg/ml streptomycin and 0.25 μg/ml amphotericin B. • (b) Calcium Signal Studies on the FLIPR™
(§5) Cells were seeded at a density of 5×10^4 cells per well in Biocoat® Poly-D-lysine-coated black-wall, clear-bottom 96-well plates (Becton-Dickinson) and allowed to attach overnight in an incubator at 37° C. Cells were then washed two times with HBSS-HEPES buffer (Hanks Balanced Salt Solution without bicarbonate and phenol red, 20 mM HEPES, pH 7.4) using a Denley Cellwash plate washer (Labsystems). After 45 minutes of dye-loading in the dark, using the calcium-sensitive dye Fluo-4 AM at a final concentration of 2 μM, plates were washed four times with HBSS-HEPES buffer to remove excess dye leaving 100 μl in each well. Plates were re-equilibrated to 37° C. for a few minutes.
(§6) Cells were excited with an Argon laser at 488 nm, and emission was measured through a 510–570 nm bandwidth emission filter (FLIPR™, Molecular Devices, Sunnyvale, Calif.). Drug solution was added in a 50 μl volume to each well to give the desired final concentration. The peak increase in fluorescence intensity was recorded for each well. On each plate, four wells each served as negative (HBSS-HEPES buffer) and positive controls (standard agonists: BW245C (hDP); PGE2 (hEP1; hEP2/Gqs5; hEP3A/Gqi5; hEP4/Gqs5); PGF2α (hFP); carbacyclin (hIP); U46619 (hTP), depending on receptor). The peak fluorescence change in each drug-containing well was then expressed relative to the controls.
(§7) Compounds were tested in a high-throughput (HTS) or concentration-response (CoRe) format. In the HTS format, forty-four compounds per plate were examined in duplicates at a concentration of 10^−5 M. To generate concentration-response curves, four compounds per plate were tested in duplicates in a concentration range between 10^−5 and 10^−11 M. The duplicate values were averaged. In either, HTS or CoRe format each compound was tested on at least 3 separate plates using cells from different passages to give an n≧3.

Series [3] deals with T3, hIP (Homo sapiens, UniProt P43119).
T3 construct: expressed in transfected cells; host or cells: HEK-293 (EBNA)
T3 sequence (P43119 whole entry): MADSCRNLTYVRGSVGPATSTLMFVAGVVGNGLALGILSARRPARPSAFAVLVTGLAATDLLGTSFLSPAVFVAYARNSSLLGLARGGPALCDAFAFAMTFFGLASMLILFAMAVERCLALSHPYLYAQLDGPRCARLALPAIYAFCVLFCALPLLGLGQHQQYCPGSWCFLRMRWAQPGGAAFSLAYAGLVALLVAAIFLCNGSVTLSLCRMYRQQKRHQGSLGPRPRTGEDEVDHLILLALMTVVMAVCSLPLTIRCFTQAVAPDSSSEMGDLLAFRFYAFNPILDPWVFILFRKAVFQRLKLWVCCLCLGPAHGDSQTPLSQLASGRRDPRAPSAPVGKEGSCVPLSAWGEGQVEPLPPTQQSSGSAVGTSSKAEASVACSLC
Kind of series: FLIPR calcium signal, hIP. The format is cell-based. To be noted: HEK-293 (EBNA) cells, read-out: FUNCTIONAL EC50 HIP. How it is done:
as §4
Cells were seeded at a density of 5×10^4 cells per well in Biocoat® Poly-D-lysine-coated black-wall, clear-bottom 96-well plates (Becton-Dickinson) and allowed to attach overnight in an incubator at 37° C. Cells were then washed two times with HBSS-HEPES buffer (Hanks Balanced Salt Solution without bicarbonate and phenol red, 20 mM HEPES, pH 7.4) using a Denley Cellwash plate washer (Labsystems). […]
Cells were excited with an Argon laser at 488 nm, and emission was measured through a 510–570 nm bandwidth emission filter (FLIPR™, Molecular Devices, Sunnyvale, Calif.). […] The peak increase in fluorescence intensity was recorded for each well. […] The peak fluorescence change in each drug-containing well was then expressed relative to the controls. […]

The subject of series [4] is Beagle dogs. In words: Intraocular pressure in dogs (pneumatonometry). In kind it is in vivo. To be noted: dog, topical 25 μL drop, Conc. 0.1%, 5 day study. How it is done:
(§8) • Intraocular Pressure (IOP) Intraocular pressure studies in dogs involved pneumatonometry performed in conscious, Beagle dogs of both sexes (10–15 kg). The animals remained conscious throughout the study and were gently restrained by hand. Drugs were administered topically to one eye as a 25 μL volume drop, the other eye received 25 μL vehicle (0.1% polysorbate 80:10 mM TRIS) as a control. Proparacaine (0.1%) was used for corneal anesthesia during tonometry. Intraocular pressure was determined just before drug administration and at 2, 4 and 6 hr thereafter on each day of the 5 day study. Drug was administered immediately after the first IOP reading. • An analogous procedure was carried out with cynomolgus monkeys with measurements at 2, 4, 6, and 24 hours after a single dose. • Pupil Diameter • Dog pupil diameter was measured using an optistick (a mm ruler which included half-circle references of standard widths (mm) for reference. Gently restraining the dog by hand, pupil diameter was determined by matching a half-circle to the pupil in normal room light. In dogs with very dark pupils a specialized penlight was used, but only very briefly to avoid pupil constriction. Pupil diameter was measured at the same time as IOP and hyperemia. • Ocular Surface Hyperemia • Ocular surface hyperemia was visually assessed and scored according to a system typically used clinically.

In series [5] the test system is Beagle dogs. Kind of series: Ocular surface hyperemia in dogs. To be noted: dog, topical, Conc. 0.1%; score: trace 0.5, mild 1, moderate 2, severe 3. The format is in vivo. The procedure: as §8
• Ocular surface hyperemia was evaluated at the same time points as intraocular pressure measurement. It should be noted that untreated dog eyes frequently have a pink/red tone. Thus, values of trace or even mild are not necessarily out of the normal range.

In series [6] the target is T4, HEP2 (Homo sapiens, UniProt P43116).
T4 construct: expressed in transfected cells; host or cells: HEK-293
T4 sequence (P43116 whole entry): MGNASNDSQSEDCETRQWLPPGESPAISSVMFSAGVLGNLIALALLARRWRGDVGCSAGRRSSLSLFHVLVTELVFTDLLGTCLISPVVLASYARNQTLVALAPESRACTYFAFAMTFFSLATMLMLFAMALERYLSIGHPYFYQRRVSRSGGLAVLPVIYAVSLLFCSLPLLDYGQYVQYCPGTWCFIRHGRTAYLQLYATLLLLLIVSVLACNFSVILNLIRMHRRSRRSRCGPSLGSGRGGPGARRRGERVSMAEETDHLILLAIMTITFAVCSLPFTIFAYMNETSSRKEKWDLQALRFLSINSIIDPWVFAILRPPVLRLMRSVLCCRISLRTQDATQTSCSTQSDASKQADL
Kind of series: Radioligand binding, EP2 receptor. The following applies: [3H]PGE2 5 nM, HEK-293 membranes. The procedure:
as §1, §2, §3

For series [7], the target named is T5, HEP3D (Homo sapiens, UniProt P43115).
T5 sequence (P43115 1-374 isoform P43115-4): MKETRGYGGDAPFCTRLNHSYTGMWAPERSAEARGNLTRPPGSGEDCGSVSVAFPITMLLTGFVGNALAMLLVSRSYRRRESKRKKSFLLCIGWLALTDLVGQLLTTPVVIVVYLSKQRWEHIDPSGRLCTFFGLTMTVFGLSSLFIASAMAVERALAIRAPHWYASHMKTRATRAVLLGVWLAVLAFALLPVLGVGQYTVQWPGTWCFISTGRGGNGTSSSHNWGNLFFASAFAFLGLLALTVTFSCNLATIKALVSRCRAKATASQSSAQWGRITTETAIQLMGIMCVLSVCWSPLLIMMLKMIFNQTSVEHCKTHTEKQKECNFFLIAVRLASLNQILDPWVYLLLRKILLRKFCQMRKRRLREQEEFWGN
Kind of series: Radioligand binding, EP3 receptor. The following applies: [3H]PGE2 5 nM. How it is done: as §1, §2, §3

Series [8] has as its target T6, hEP2/Gqs5 (Homo sapiens, UniProt P43116).
T6 construct: expressed in transfected cells; host or cells: HEK-293 (EBNA)
In words: FLIPR calcium signal, hEP2/Gqs5. In kind it is cell-based. The following applies: HEK-293 (EBNA) cells, read-out: FUNCTIONAL EC50 HEP2. How it is done:
as §4, §5, §6
Compounds were tested in a high-throughput (HTS) or concentration-response (CoRe) format. […]

Series [9] has as its target T7, hEP3A/Gqi5 (Homo sapiens, UniProt P43115).
T7 construct: expressed in transfected cells; host or cells: HEK-293 (EBNA)
T7 sequence (P43115 1-390): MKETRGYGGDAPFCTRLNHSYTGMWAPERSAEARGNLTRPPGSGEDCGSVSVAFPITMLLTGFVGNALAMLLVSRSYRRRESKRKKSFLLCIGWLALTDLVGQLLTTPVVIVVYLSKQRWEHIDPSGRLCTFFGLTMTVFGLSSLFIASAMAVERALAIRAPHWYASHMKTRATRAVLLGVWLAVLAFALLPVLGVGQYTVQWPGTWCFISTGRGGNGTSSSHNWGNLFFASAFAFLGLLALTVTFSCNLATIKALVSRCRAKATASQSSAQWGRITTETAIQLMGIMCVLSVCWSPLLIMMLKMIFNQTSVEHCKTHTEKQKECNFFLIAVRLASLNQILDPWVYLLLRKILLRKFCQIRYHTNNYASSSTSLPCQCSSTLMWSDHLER
In words: FLIPR calcium signal, hEP3A/Gqi5. The format is cell-based. The following applies: HEK-293 (EBNA) cells, read-out: FUNCTIONAL EC50 HEP3A. How it is done: as §4, §5, §6, §7

In series [10] the target is T8, hTP (Homo sapiens, UniProt P21731).
T8 construct: expressed in transfected cells; host or cells: HEK-293 (EBNA)
T8 sequence (P21731 1-343): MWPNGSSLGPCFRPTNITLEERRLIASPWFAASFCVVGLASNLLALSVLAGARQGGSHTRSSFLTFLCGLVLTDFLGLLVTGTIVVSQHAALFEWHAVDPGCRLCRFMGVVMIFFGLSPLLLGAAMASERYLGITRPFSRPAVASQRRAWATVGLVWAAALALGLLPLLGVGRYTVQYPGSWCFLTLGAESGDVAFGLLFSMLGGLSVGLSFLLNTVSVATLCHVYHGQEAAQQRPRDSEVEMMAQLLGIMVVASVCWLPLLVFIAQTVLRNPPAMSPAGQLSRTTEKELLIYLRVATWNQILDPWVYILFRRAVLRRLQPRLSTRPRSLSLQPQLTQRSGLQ
In words: FLIPR calcium signal, hTP. The format is cell-based. To be noted: HEK-293 (EBNA) cells, read-out: FUNCTIONAL EC50 HTP. The procedure:
as §4, §5, §6, §7

T1 sequence (P35408 whole entry): as the sequence (P35408 whole entry) above
T6 sequence (P43116 whole entry): as the sequence (P43116 whole entry) above

The compound `COC(=O)CSCCCS[C@H]1C(=O)C[C@@H](CO)[C@@H]1/C=C/C(O)CCc1ccc2ccccc2c1` (single isomer, unassigned) [drawing 39] returned a 50% inhibitory concentration (IC50) in [1] of 140 nM. For the same compound, the concentration for a half-maximal effect (EC50) in series [2] is 1860 nM; in [3], over 10000 nM.

Turning to `O=C(O)CSCCCS[C@H]1C(=O)C[C@@H](CO)[C@@H]1/C=C/C(O)CCc1ccc2ccccc2c1` (stereo partly drawn) [Compound 141b, {3-[(1R,2S,3R)-3-Hydroxymethyl-2-((E)-3-hydroxy-5-naphthalen-2-yl-pent-1-enyl)-5-oxo-cyclopentylsulfanyl]-propylsulfanyl}-acetic acid], the IC50 in series [1] was found to be 400 nM. Besides, the concentration for a half-maximal effect (EC50) in series [2] worked out at 219 nM. In series [4], the “Max. ΔIOP” value was −1.6 mm Hg. In series [5], this compound came in with a Max hyperemia of 0.7.

For the compound `O=C(O)CSCCCS[C@H]1C(=O)CC[C@@H]1/C=C/C(O)Cc1csc2ccccc12` (single isomer, unassigned) [drawing 55, {3-[2-(4-Benzo[b]thiophen-3-yl-3-hydroxy-but-1-enyl)-5-oxo-cyclopentylsulfanyl]-propylsulfanyl}-acetic acid], the IC50 is 600 nM in [6], over 10000 nM in series [7] and 26 nM in [1]. For the same compound, the EC50 was over 10000 nM in [8]; over 10000 nM in [9]; 7240 nM in [2]; 3.7 nM in series [10]; 389 nM in [3].

Consider `O=C(O)CSCCCS[C@H]1C(=O)CC[C@@H]1/C=C/C(O)CCc1ccc2ccccc2c1` (single isomer, unassigned) [Compound 153], for which the results for the IC50 in series [6] and in [1] were over 10000 nM and 140 nM, respectively. Moreover, the concentration for a half-maximal effect (EC50) in series [9] is over 10000 nM; in [2] it was 0.3 nM; in series [10] it was over 10000 nM. Further, the “Max. ΔIOP” value in series [4] is given as −4.4 mm Hg. Besides, the Max hyperemia in series [5] was found to be 1.8.

As to `O=C(O)CSCCCS[C@H]1C(=O)CC[C@@H]1/C=C/C(O)Cc1csc2ccccc12` (single isomer, unassigned) [drawing 56, {3-[2-(4-Benzo[b]thiophen-3-yl-3-hydroxy-but-1-enyl)-5-oxo-cyclopentylsulfanyl]-propylsulfanyl}-acetic acid], the IC50 was 3500 nM in series [6] and over 10000 nM in series [7]. Also, the half-maximal effective concentration (EC50) in series [8] is over 10000 nM; in series [9] it was over 10000 nM; in series [2], 6.8 nM; in series [10], over 10000 nM.

(Values after US7183324B2, “2,3,4-substituted cyclopentanones as therapeutic agents” (Allergan, Inc., priority 2004, dated 2007).)
